{
  "source": "paper PMC7194013",
  "about": "(Nature plants, 2020)",
  "assay_in_all_cases": "in vitro enzyme assay with purified recombinant CPS and GGPP, GC-FID",
  "format_in_all_cases": "biochemical",
  "key": {"ZmCPS2 (An2)": {"molecular_target": "T1, ZmCPS2 (An2) (Zea mays, UniProt A0A1D6K6U5)", "T1 sequence (A0A1D6K6U5 71-825)": "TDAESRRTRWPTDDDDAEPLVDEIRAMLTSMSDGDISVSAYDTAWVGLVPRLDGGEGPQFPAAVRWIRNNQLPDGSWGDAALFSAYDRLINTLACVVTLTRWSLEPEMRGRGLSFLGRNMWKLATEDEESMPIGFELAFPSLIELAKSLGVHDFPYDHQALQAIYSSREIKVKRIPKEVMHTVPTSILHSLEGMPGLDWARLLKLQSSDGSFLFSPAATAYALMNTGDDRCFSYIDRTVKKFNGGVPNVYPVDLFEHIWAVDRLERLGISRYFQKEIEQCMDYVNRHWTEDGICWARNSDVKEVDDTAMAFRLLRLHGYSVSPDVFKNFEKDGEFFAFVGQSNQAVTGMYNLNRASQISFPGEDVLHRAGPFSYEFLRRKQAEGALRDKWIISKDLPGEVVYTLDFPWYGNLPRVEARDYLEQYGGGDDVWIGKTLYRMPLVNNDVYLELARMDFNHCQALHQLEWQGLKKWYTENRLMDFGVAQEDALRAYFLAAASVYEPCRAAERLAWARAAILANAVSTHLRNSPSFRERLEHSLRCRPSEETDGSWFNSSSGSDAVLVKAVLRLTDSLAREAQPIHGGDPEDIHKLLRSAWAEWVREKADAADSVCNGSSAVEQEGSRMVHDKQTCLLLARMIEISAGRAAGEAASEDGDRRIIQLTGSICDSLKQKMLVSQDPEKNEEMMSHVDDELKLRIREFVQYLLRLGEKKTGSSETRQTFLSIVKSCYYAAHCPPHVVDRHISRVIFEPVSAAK"}, "ZmCPS1 (An1)": {"molecular_target": "T2, ZmCPS1 (An1) (Zea mays, UniProt Q41771)", "T2 sequence (Q41771 64-824)": "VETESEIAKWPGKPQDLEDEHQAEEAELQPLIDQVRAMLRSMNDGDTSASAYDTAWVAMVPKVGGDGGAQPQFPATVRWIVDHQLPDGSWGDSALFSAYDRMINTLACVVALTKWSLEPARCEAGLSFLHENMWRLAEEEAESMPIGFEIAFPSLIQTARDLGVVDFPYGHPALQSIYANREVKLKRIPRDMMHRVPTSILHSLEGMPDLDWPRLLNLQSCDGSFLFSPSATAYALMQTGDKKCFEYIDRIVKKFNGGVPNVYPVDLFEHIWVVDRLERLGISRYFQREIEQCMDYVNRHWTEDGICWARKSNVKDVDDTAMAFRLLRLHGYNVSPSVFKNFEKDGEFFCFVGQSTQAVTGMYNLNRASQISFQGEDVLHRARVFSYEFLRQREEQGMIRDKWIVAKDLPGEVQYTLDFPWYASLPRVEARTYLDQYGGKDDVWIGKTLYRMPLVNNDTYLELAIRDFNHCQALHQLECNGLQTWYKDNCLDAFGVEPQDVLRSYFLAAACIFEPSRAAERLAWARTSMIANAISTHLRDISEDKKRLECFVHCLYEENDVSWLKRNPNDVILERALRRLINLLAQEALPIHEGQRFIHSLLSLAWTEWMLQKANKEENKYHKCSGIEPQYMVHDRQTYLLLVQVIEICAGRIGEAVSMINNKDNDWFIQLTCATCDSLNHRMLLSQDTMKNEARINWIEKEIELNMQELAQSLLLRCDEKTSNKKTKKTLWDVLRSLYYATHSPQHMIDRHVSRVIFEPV"}, "[1]": {"molecular_target": "T3, AtCPS (ent-copalyl diphosphate synthase, GA1) (Arabidopsis thaliana, UniProt Q38802)", "T3 sequence (Q38802 85-802)": "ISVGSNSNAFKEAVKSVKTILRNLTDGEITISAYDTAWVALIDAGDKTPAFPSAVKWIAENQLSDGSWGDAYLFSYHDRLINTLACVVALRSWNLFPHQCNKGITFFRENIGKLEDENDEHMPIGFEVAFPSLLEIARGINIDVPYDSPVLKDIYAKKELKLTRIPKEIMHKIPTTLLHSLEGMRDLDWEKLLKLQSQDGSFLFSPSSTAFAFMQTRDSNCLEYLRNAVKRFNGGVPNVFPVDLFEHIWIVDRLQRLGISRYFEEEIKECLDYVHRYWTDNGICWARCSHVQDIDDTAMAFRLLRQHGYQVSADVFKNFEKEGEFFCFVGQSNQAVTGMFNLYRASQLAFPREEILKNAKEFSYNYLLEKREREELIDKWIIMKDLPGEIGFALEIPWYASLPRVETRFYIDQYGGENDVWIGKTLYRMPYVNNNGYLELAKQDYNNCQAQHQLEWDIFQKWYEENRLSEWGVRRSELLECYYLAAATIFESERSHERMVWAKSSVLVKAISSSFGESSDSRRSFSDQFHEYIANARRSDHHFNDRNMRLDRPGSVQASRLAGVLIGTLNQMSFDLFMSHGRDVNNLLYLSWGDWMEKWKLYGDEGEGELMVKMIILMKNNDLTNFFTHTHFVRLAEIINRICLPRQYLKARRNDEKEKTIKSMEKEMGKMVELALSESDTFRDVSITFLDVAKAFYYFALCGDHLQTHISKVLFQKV"}},
  "data": [
    {"compound": "C[N+]1(C)CCCCC1", "note": "[DPC, 1,1-dimethyl-piperidinium chloride]", "values": [
      {"measurement": "IC50", "setting": "ZmCPS2 (An2)", "value": 4000, "unit": "µM"},
      {"measurement": "IC50", "setting": "ZmCPS1 (An1)", "value": 2000, "unit": "µM"},
      {"measurement": "IC50", "setting": "[1]", "value": 30, "unit": "µM"}
    ]}
  ]
}
